Test results published in patent publication US20150343016A1, “CHEMICAL ENTITIES AND THERAPEUTIC USES THEREOF” (The Regents of the University of Colorado, a body corporate, priority 2010, published 2015).

What was measured:
Drosophila = test: Sensitizing flies to ionizing radiation (FIG. 7); assay type: in vivo
Description: Bouvardin derivatives are depicted in FIG. 4 as a generic Formula III, with the specific derivative used in this example having R1=COOCH3, R2=OCH3, R3=H, R4=Boc, R5=CH3.
(§1) Feeding stage 3rd instar larvae were irradiated as previously described (2). Briefly, 120 hr old larvae were rinsed to remove food and passed through sizing sieves to obtain animals of uniform size. Larvae were placed in a Petri dish and irradiated using a TORREX X-ray generator, set at 115 kV and 5 mA (producing 2.4 Rads/sec or 1.44 Gy/min) Irradiated larvae were then cultured on cornmeal-agar media (2) containing drug or DMSO carrier. In all experiments using human cells, cells in 96-well plates were irradiated with a RS2000 Biological Irradiator (Rad Source Technologies, Inc.) delivering 1 Gy/min.

[1] = system: grp (Chk1) mutant Drosophila larvae; test: Drosophila larval survival to adulthood (eclosion), drug with and without IR, grp (Chk1) mutants; assay type: in vivo; conditions: for manner in which drug and radiation act together: grp (Chk1) mutants
Protocol: (§2) To validate the identification of Bouvardin from the primary screen, the effect of this molecule on Drosophila larvae alone or in combination with radiation were assessed (FIG. 12). The screen was performed using irradiated mutant larvae. Hits from the screen were defined as those that reduced the survival of IRRADIATED larvae compared to the population of drugs being tested (approximately 80 molecules at a time) or compared to DMSO controls in the re-test. A hit could therefore act by enhancing the effect of radiation, or by simply killing larvae as a single agent, or both. To distinguish among these possibilities, hits from the screen were re-tested against larvae with and without irradiation.
(§3) In FIG. 12 survival after each treatment is expressed as the fraction of animals that emerged (“eclosed”) as viable adults. The averages have been normalized to the average fraction eclosed in no IR/drug control for the respective genotype. Error bars extend beyond fractional survival of 1.0 simply because of normalization. (A-C) Fraction eclosed for WT and grp and p53 mutants at 16 uM of Bouvardin, with and without IR. The data are averages of 3-8 biological replicates per sample. Dotted line on each graph denotes expected ‘fraction eclosed’ if drug and IR act additively. IR doses were 4000R for WT and grp and 3000R for p53 because of the higher radiation sensitivity of the latter. (D) Fraction eclosed for Minute mutants and yw controls after exposure to 0 (−IR) and 2000R (+IR) of X-rays. N ranged from 86-207 per genotype per treatment, in 3 biological replicates per sample. *=p<0.01; **=<0.001. 100R=1Gy. Error bar=1 standard deviation.
The activity of Bouvardin in Drosophila alone or in combination with ionizing radiation (IR) was assessed. Drug concentrations of 10-20 μM were used to approximate the conditions of the original screen. Third instar larvae were irradiated and cultured on medium containing drug. The survival of larvae was quantified 10 days later by measuring the rate of eclosion into adulthood. […]

[2] = system: p53 mutant Drosophila larvae; test: Drosophila larval survival to adulthood (eclosion), drug with and without IR, p53 mutants; assay type: in vivo; conditions: p53 mutants; for eclosion expected if the two treatments produced an additive effect: Bouvardin and IR
Protocol: as §2, §3
The activity of Bouvardin in Drosophila alone or in combination with ionizing radiation (IR) was assessed. Drug concentrations of 10-20 μM were used to approximate the conditions of the original screen. Third instar larvae were irradiated and cultured on medium containing drug. The survival of larvae was quantified 10 days later by measuring the rate of eclosion into adulthood. […] For example, IR alone reduces the eclosion of p53 mutants to 0.63±0.05 and 10 μM of drug reduces it to 0.82±0.15. The combination of Bouvardin and IR reduces eclosion to 0.49, nearly the exact number expected (0.63±0.05×0.82±0.15=0.51±0.10) if the two treatments produced an additive effect. The expected eclosion for additive effect of drug and radiation are denoted with a white dotted line in each graph.
Wild type flies were of the Sevelin stock. Mutants have been described before. p535A-1-4 results from targeted deletion of the gene, and is maintained and used as homogygotes. grpl (Chk1 mutants) results from a p-element insertion and is a genetic null. Homozygotes of the latter were identified by the lack of GFP marker on the balancer chromosome. Minute mutants were of the genotypes y[1]w[*]; P[w[+mC]=lacW]RpS131/CyO and P[lacW]RpL36G0471 w67c23/FM7a. Because Minute mutants were in yw or w background, y1w1 (Bloomington stock #1495) was used as ‘wild type’ control in these experiments.
as §1

Det562 cells = test: CellTiter-Glo Luminescent Cell Viability Assay, Bouvardin with Taxol, Det562; assay type: cell-based, human; conditions: Det562
Protocol: “Combination Index” computation. Combination Indices were calculated using CalcuSyn software (Biosoft), which uses the method of Chou and Talalay. This method first computes drug-induced effect using the Hill Equation: where E is the measured effect; C is the drug concentration; Emax is the full range of drug effect, usually at or near 100%; IC50 is the drug concentration producing the median effect of 50%; and n is the curve shape parameter describing the steepness of the concentration-effect relationship. The Chou and Talalay method then linearizes the Hill Equation by logarithmic transformation as: where fu is the fraction of cells left unaffected after drug exposure, fa is the fraction of cells affected by the exposure, C is the drug concentration used, Cm is the concentration to achieve the median effect, and n is the curve shape parameter. Cm and n are equivalent to IC50 and n, respectively, in the Hill Equation. The values of n (obtained from the slope), nlog(Cm) (obtained from the absolute value of the intercept), and, therefore, Cm are obtained by plotting log(fu−1−1) versus log(C). […]
The growth inhibitory effects of Bouvardin with Taxol were evaluated using CellTiter-Glo® Luminescent Cell Viability Assay (Promega G7570). […] Luminescence of each well was measured using an automated plate reader.

What does the source list for `COc1ccc(C[C@H]2C(=O)N[C@H](C)C(=O)N(C)[C@@H]3C(=O)N(C)[C@@H](Cc4ccc(O)c(c4)Oc4ccc(cc4)[C@H]3O)C(=O)N[C@@H](C)C(=O)N[C@H](C)C(=O)N2C)cc1` (stereo in doubt) [Bouvardin, bouvardin]?
observed effect of drug with radiation versus additive effect (Drosophila): exceeds additive effect of drug and radiation; manner in which drug and radiation act together [1]: synergistic manner; manner in which drug and radiation act together ([1]; listed as bouvardin): appear to synergize; effect on the killing effect of radiation (+IR versus +both) ([1]; grp mutants, drug 10-20 μM): increased the killing effect of radiation in a statistically significant manner; manner in which drug and radiation act together [2]: additive manner; eclosion (fraction eclosed, normalized to no IR/drug control) ([2]; 10 μM of drug alone): 0.82±0.15; eclosion ([2]; 10 mM of drug alone): 0.82; eclosion expected if the two treatments produced an additive effect [2]: 0.51±0.10; eclosion expected if the two treatments produced an additive effect ([2]; listed as bouvardin): 0.50; eclosion (fraction eclosed, normalized to no IR/drug control) ([2]; combination of Bouvardin and IR): 0.49; effect on the killing effect of radiation (+IR versus +both) ([2]; drug 10-20 μM): increased the killing effect of radiation in a statistically significant manner; interaction of Bouvardin with Taxol (Det562 cells): synergy with Taxol over a wide range of concentrations
